Legend:
Assay in all cases: area under concentration-response curve (viability) (AUC (a.u.)); higher = less active
Settings in all cases: 48 h
[1] = system: CU-ACC2
In short: (§1)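 Concentration-response curves were fitted to obtain AC50 and area under the curve, keeping inhibitory or non-responding curve classes only. Data came from CellTiter-Glo luminescence, normalised per plate to vehicle and empty-well controls, in three adrenocortical carcinoma cell lines. These were treated in 1,536-well plates with library compounds at 11 concentrations and read after 48 h.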

[2] = system: NCI-H295R
In short: as §1

[3] = system: CU-ACC1
In short: as §1

| Structure (SMILES) | area under concentration-response curve [1] | area under concentration-response curve [2] | area under concentration-response curve [3] |
| --- | --- | --- | --- |
| C[C@@H]1CC[C@@]2(OC1)OC1CC3C4CC=C5CC(O)CCC5(C)C4CCC3(C)C1[C@@H]2C (some centres undefined) | 527 | 465 | 470 |
| N#CC1(c2ccc(NC(=O)c3cccnc3NCc3ccncc3)cc2)CCCC1 | 531 | 545 | 547 |
| CCC(=O)O[C@@]1(CC[C@H]2[C@@H]3CCC/4=C/C(=O)CC[C@]4(C)[C@H]3CC[C@]12C)C(=O)CO | 585 | 518 | 508 |
| Cc1ccc(NC(=O)c2cccc(N(C)C)c2)cc1NC(=O)c1ccc(O)cc1 | 556 | 511 | 496 |
| O=C1CCC(N2C(=O)c3ccccc3C2=O)C(=O)N1 (centres undefined) | 602 | 538 | 535 |
| NC1=NC=CC2=C1N=C[N]2[C@@H]3\C=C(CO)/[C@@H](O)[C@H]3O | 454 | 403 | 448 |
| CC1=CC(=C(O)C(=C1C\C2=N\CCN2)C)C(C)(C)C | 579 | 496 | 515 |
| Cc1c(N)nc([C@H](CC(N)=O)NC[C@@H](N)C(N)=O)nc1C(=O)N[C@H](C(=O)N[C@@H](C)[C@H](O)[C@@H](C)C(=O)N[C@@H](C(=O)NCCc1nc(-c2nc(C(=O)NCCC[S+](C)C)cs2)cs1)[C@@H](C)O)C(O[C@H]1O[C@H](CO)[C@H](O)[C@@H](O)[C@H]1O[C@H]1O[C@H](CO)[C@@H](O)[C@H](OC(N)=O)[C@@H]1O)c1c[nH]cn1 (some centres undefined) | 614 | 530 | 508 |
| CCCCCCCc1ccc(CCc2cccc(O)c2C(=O)O)cc1 | 574 | 534 | 515 |
| CCC(CC)CC1(C(=O)Nc2ccccc2SC(=O)C(C)C)CCCCC1 | 593 | 537 | 519 |
| Cn1cc(-c2c[nH]c3ncnc(N4CCOCC4)c23)cn1 | 610 | 576 | 543 |
| C[C@H](O)[C@H]1[C@@H]2[C@H](C)C(=C(\N2C1=O)C(O)=O)/S[C@@H]3CN[C@H](CN[S+](N)([O-])=O)C3 | 643 | 578 | 516 |
| CCOC(=O)C/1=C(C)/NC(=S)NC1C2=CC=CC(=C2)O (centres undefined) | 545 | 526 | 498 |
| O=C(/C=C/c1ccc(/C=C/C(=O)Nc2ccc(C3=NCCN3)cc2)cc1)Nc1ccc(C2=NCCN2)cc1 | 610 | 613 | 635 |
| COc1cc2nccc(Oc3ccc(NC(=O)NC4CC4)c(Cl)c3)c2cc1C(N)=O | 623 | 582 | 516 |
| NCCCC(N)(C(=O)O)C(F)F (centres undefined) | 514 | 491 | 443 |
| OC[C@H]1O[C@@H](S[C@@H]2O[C@H](CO)[C@H](O)[C@H](n3cc(-c4cccc(F)c4)nn3)[C@H]2O)[C@H](O)[C@@H](n2cc(-c3cccc(F)c3)nn2)[C@H]1O | 590 | 547 | 507 |

| Structure (SMILES) | area under concentration-response curve [1] | area under concentration-response curve [2] | area under concentration-response curve [3] |
| --- | --- | --- | --- |
| CC(C)C(=O)OCC(=O)[C@@]12O[C@@H](O[C@@H]1C[C@H]3[C@@H]4CC\C5=C\C(=O)\C=C/[C@]5(C)[C@H]4[C@@H](O)C[C@]23C)C6CCCCC6 | 606 | 531 | 523 |
| C[C@]1(C(=O)N(CCCC(=O)O)Cc2cccc(Cl)c2)CCN1C(=O)c1csc2ccccc12 | 584 | 532 | 490 |
| OC(=O)CNC(=O)\C1=C(/O)C2=CC=CC=C2N(CC3=CC=CC=C3)C1=O | 539 | 529 | 441 |
| Cc1cc(SCc2sc(-c3ccc(C(F)(F)F)cc3)nc2C)ccc1OCC(=O)O | 608 | 540 | 517 |
| Cn1c(=O)c2[nH]cnc2n(C)c1=O | 555 | 469 | 447 |
| CCOc1cc(C(=O)Nc2ccc(Cl)c(-c3nc4ccccc4[nH]3)c2)cc(OCC)c1OCC | 618 | 549 | 477 |
| CN1C(=O)CC[S+](=O)([O-])C1c1ccc(Cl)cc1 (centres undefined) | 534 | 572 | 553 |
| C[C@H]1CC[C@H](n2c3cnccc3c3cnc(Nc4ccc5c(n4)CCN(C(=O)CO)C5)nc32)CC1 | 622 | 596 | 601 |
| CN(C)[C@H]\1[C@@H]2C[C@@H]\3CC4=C(C(=C(NC(=O)CNC(C)(C)C)C=C4N(C)C)O)C(=O)C3=C(O)/[C@@]2(O)C(=O)\C(=C1O)C(N)=O | 452 | 379 | 380 |
| CC(=O)O[C@H]1C[C@@H]2CC[C@@H]3[C@H](CC[C@@]4(C)[C@H]3C[C@H]([N+]3(C)CCCCC3)[C@@H]4OC(C)=O)[C@@]2(C)C[C@@H]1[N+]1(C)CCCCC1 | 584 | 505 | 501 |
| CC(C)OC(=O)C(C(=O)OC(C)C)=C1S\C=C/S1 | 638 | 575 | 517 |
| COc1nccc(-c2c(-c3ccc(F)cc3)ncn2C2CCNCC2)n1 | 482 | 423 | 429 |
| CCOC(=O)N1c2ccc(C(F)(F)F)cc2[C@@H](N(Cc2cc(C(F)(F)F)cc(C(F)(F)F)c2)C(=O)OC)C[C@H]1CC | 636 | 533 | 502 |
| CCN1\C=C(C(O)=O)/C(=O)C2=C1C(=C(N3CCNC(C)C3)C(=C2)F)F (centres undefined) | 674 | 605 | 577 |
| CC1=CC(=O)c2ccccc2C1=O | 530 | 501 | 495 |
| Cn1c(COP(=O)(NCCBr)NCCBr)cnc1[N+](=O)[O-] | 575 | 514 | 394 |
